Counter-ions that a name gives are not always drawn.
Assays:
[1] = system: M3 muscarinic receptor (M3R); assay type: binding
muscarinic M3 receptor = conditions: cited from earlier work
[2] = system: M3 muscarinic receptor (M3R); assay type: binding; conditions: immobilized M3R column; flow rates 0.4-3.6 mL/min
immobilized M3R [3] = test: Identification of M3R-binding bioactive compounds in Daturae Flos extract on M3R-immobilized column with HPLC-MS; conditions: retained peak 2 of Daturae Flos extract, identified by HPLC-MS/MS
Protocol: The heating under reflux method was used to make the anhydrous extract of […]. In brief, 10 g of dried DF was soaked in 100 mL of water for 0.5 h, boiled for 2 × 1 h, filtered, and concentrated to 10 mL via rotary evaporation at 60 °C under reduced pressure. A solution of 95% ethanol was applied to carry out alcohol sedimentation to reduce the alcohol content of the concentrated extract to 75%. The liquid supernatant was concentrated at 60 °C to obtain an herbal solution of 1.0 g/mL.
The M3R-immobilized column was utilized to analyze the active components in the DF extract with an Agilent 1100 chromatographic system. The mobile phase was 5 mM ammonium acetate buffer, the flow rate was 0.3 mL/min, the sample volume was 10 μL, and the detection wavelength was 254 nm. […] It was further analyzed using high performance liquid chromatography (HPLC)–mass spectrometry (MS).
An Eclipse XDB-C18 column (2.1 × 150 mm, 3.5 μm) was employed for chromatographic analysis with a 0.1% formic acid solution and methanol (40:60, v/v) as the mobile phase, a flow rate of 0.3 mL/min, and a column temperature of 30 °C. The MS analysis was carried out in both negative and positive modes with a scan range of 100–2000 amu, a nebulizing gas pressure of 30 psi, a flow rate of 8.0 L/min, and a dry gas temperature of […], respectively.

immobilized M3R [4] = test: Specificity of the M3R-immobilized column (retention times of ligands); assay type: binding
[5] = phosphate buffer 20 mM pH 7.4, flow rate 0.2 mL/min, injection 10 μL

CN1[C@@H]2CC(OC(=O)[C@H](CO)c3ccccc3)C[C@H]1[C@@H]1O[C@@H]12.Cl (single isomer, unassigned; (-)) [(−)-Scopolamine hydrochloride]
KA by Frontal Analysis (association constant) [1]: (2.39 ± 0.03) × 10^4 M^−1 | kd by the Radioligand Binding Assay (muscarinic M3 receptor): 0.00517 ± 0.0005 s⁻¹

CN1[C@@H]2CC[C@H]1C[C@@H](OC(=O)C(CO)c1ccccc1)C2 (stereo partly shown) [Atropine sulfate, atropine sulfate]
KA by Frontal Analysis (association constant) [1]: (3.71 ± 0.03) × 10^4 M^−1 | kd by the Peak Profiling Method (dissociation rate constant) [2]: 0.238 ± 0.00283 s⁻¹

CN1[C@@H]2CC[C@H]1C[C@@H](OC(=O)[C@H](CO)c1ccccc1)C2 [Hyoscyamine, hyoscyamine]
binding to M3R of compounds from the DF extract (immobilized M3R [3]): bind to M3R

CC[C@@H]1C(=O)OC[C@@H]1Cc1cncn1C [Pilocarpine]
retention time on the M3R-immobilized column (immobilized M3R [4]; [5]): 5.4 min

CCCCC(=O)N(Cc1ccc(-c2ccccc2-c2nnn[nH]2)cc1)[C@H](C(=O)O)C(C)C [Valsartan]
specific binding on the M3R-immobilized column (immobilized M3R [4]; judged from retention time vs system void time): no specific binding occurred | retention time on the M3R-immobilized column (immobilized M3R [4]; [5]): 2.3 min

CN1[C@@H]2C[C@@H](OC(=O)[C@H](CO)c3ccccc3)C[C@H]1[C@@H]1O[C@@H]12 [scopolamine]
binding to M3R of compounds from the DF extract (immobilized M3R [3]): bind to M3R

O=N[O-].[Na+] [sodium nitrite, Sodium nitrite]
retention time on the M3R-immobilized column (immobilized M3R [4]; pH 7.4): 1.1 min
